Literature values, collected in US20180125835A1, “Dosage and Use of an A2A Antagonist” (H. Lundbeck A/S, priority 2014, published 2018).

Details: in vivo; cited from earlier work

In the case of `Cc1ccc(-c2nc(N)nc3c2nnn3Cc2cccc(CO[C@H]3CCOC3)n2)o1` [Compound V-81444], the half-life is listed as 5 to 7 h.
